In publication PMC2362731, “Phase I study of Carzelesin (U-80,244) given (4-weekly) by intravenous bolus schedule” (British Journal of Cancer, 1999):

Test: Plasma pharmacokinetics of Carzelesin and metabolites by HPLC, first course
Assay type: in vivo, human
Description: Carzelesin is a cyclopropylpyrroloindole analogue which acts as a DNA-sequence-specific alkylating agent. In this phase I study, Carzelesin was given as a 4-weekly 10 min IV infusion to 51 patients with advanced solid tumours. Patients received a median of two courses (range 1–5) at one of nine dose levels: 24, 48, 96, 130, 150, 170, 210, 250 and 300 μg m^−2. According to NCI-CTC criteria, non-haematological toxicities (grade 1/2) included fever, nausea and vomiting, mucositis and anorexia, none of which was clearly dose related. The dose-limiting toxicity was haematological and consisted mainly of neutropenia and to a lesser extent thrombocytopenia. From the dose level 150 μg m^−2, the haematological toxicity (particularly thrombocytopenia) was delayed in onset, prolonged and cumulative in some patients. In several courses, double WBC nadirs occurred. The maximum tolerated dose for a single course was 300 μg m^−2. From the dose level 170 μg m^−2, the intended dose intensity could not be delivered to most patients receiving > 2 courses owing to cumulative haematological toxicity. The dose level with the best dose intensity for multiple courses was 150 μg m^−2. The pharmacokinetics of Carzelesin and its metabolites (U-76,073; U-76,074) have been established in 31 patients during the first course of treatment using a HPLC method. […] The concentration of U-76,074 (active metabolite) extended above the lower limit of quantitation (1 ng ml^−1) for short periods of time and only at the higher dose levels. There was no relationship between neutropenia and the AUC of the prodrug Carzelesin, but the presence of detectable plasma levels of the active metabolite U-76,074 was usually associated with a substantial decrease in ANC values. © 1999 Cancer Research Campaign
Carzelesin (U-80,244, Figure 1A) is a cyclopropylpyrroloindole (CPI) prodrug analogue of CC-1065. […] CPI drugs are a class of compounds with unique DNA interactive properties. These agents fit into the minor groove region of DNA, and the CPI function in the molecule mediates a covalent binding to the N3 position of adenine in A-T rich regions, thus forming DNA adducts in a sequence selective fashion (Hurley et al, 1984; Reynolds et al, 1985). Three new CPIs have now been developed. […] Bizelesin differs from the classical CPI drugs in that it contains two chloromethyl functions, which are both converted (via intramolecular rearrangements) to the CPI alkyl- ating species that interact with DNA. Consequently, this agent is capable of forming DNA interstrand cross-links (Lee et al, 1991). […] Therefore, efforts were directed to modu- late the alkylation rate by the preparation of CPI prodrugs that would require chemical or enzymatic conversion. The activation of Carzelesin is a two-step reaction with hydrolysis of the phenyl- urethane substituent to form the intermediate compound U-76,073, followed by ring closure to form the active product U-76,074 (Figure 1B). […] This higher efficacy may be related to the pharmacologic features of the compound. […] Phase I study of Carzelesin (U-80,244) given (4-weekly) by intravenous bolus schedule A Awada1, CJA Punt2, MJ Piccart1, O Van Tellingen3, L Van Manen2, J Kerger1, Y Groot4, J Wanders4, J Verweij5 and DJTh Wagener2 1Institut Jules Bordet, Bd de Waterloo 125, 1000 Brussels, Belgium; 2University Hospital, Geert Grooteplein 8, Box 9101, 6500 HB Nijmegen, The Netherlands; 3The Netherlands Cancer Institute (Antoni van Leeuwenhoek Huis), Plesmanlaan 121, 1066 CX Amsterdam, The Netherlands; 4European Organization for Research and Treatment of Cancer - New Drug Development Office, PO Box 7057, Amsterdam, The Netherlands; 5Rotterdam Cancer Institute, Groene Hilledijk 301, 3075 EA Rotterdam, The Netherlands; on behalf of the EORTC Early Clinical Studies Group and EORTC NDDO Summary Carzelesin is a cyclopropylpyrroloindole analogue which acts as a DNA-sequence-specific alkylating agent. […]

SMILES: CCN(CC)c1ccc2cc(C(=O)Nc3ccc4[nH]c(C(=O)N5C[C@@H](CCl)c6c5cc(OC(=O)Nc5ccccc5)c5[nH]cc(C)c65)cc4c3)oc2c1 [Carzelesin]
- time after drug administration until plasma level dropped below 1 ng ml-1 (dose level 24): ≤ 1 h
- peak plasma concentration (dose level 24, also reported in Van Tellingen et al, 1998): about 10 ng ml-1
- mean peak plasma level (highest dose level 300): 63 ng/mL
- pharmacokinetic behaviour (dose vs plasma AUC) (in vivo): linear pharmacokinetics
